According to PubChem BioAssay (NCI):
Where “and” joins values, the source holds several entries; their conditions need not be identical. Identical values can stand only once.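 Protocol summary: plate cells (96-well), add compound at 5 concentrations, incubate 48 h, interpolate endpoints linearly. GI50 is the concentration that inhibits growth by half. At the TGI there is no net growth.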

Columns and labels:
Test in all cases: NCI tumour cell line growth inhibition, 48 h
A498 renal = system: A498 renal
A549 NSCLC = system: A549 NSCLC
KM12 colon = system: KM12 colon
MALME-3M melanoma = system: MALME-3M melanoma
OVCAR-4 ovarian = system: OVCAR-4 ovarian
OVCAR-5 ovarian = system: OVCAR-5 ovarian
SK-MEL-2 melanoma = system: SK-MEL-2 melanoma
SK-MEL-28 melanoma = system: SK-MEL-28 melanoma
SW-620 colon = system: SW-620 colon
UACC-257 melanoma = system: UACC-257 melanoma

Compound | TGI (A498 renal) | TGI (A549 NSCLC) | TGI (KM12 colon) | TGI (MALME-3M melanoma) | TGI (OVCAR-4 ovarian) | TGI (OVCAR-5 ovarian) | TGI (SK-MEL-2 melanoma) | TGI (SK-MEL-28 melanoma) | TGI (SW-620 colon) | TGI (UACC-257 melanoma) | GI50 (A498 renal) | GI50 (A549 NSCLC) | GI50 (KM12 colon) | GI50 (MALME-3M melanoma) | GI50 (OVCAR-4 ovarian) | GI50 (OVCAR-5 ovarian) | GI50 (SK-MEL-2 melanoma) | GI50 (SK-MEL-28 melanoma) | GI50 (SW-620 colon) | GI50 (UACC-257 melanoma)
C=CCCCCn1c2ccccc2c2c(C)c3cnccc3c(C)c21 | 17.8 µM | 32.2 µM | 42.6 µM | 36.8 µM | 21.8 µM | 40.4 µM | 47.3 µM | 40.8 µM | 73.6 µM | 18.7 µM |  |  |  |  |  |  |  |  |  | 
CCC1(OC(=O)CN)C(=O)OCc2c1cc1n(c2=O)Cc2cc3cc4c(cc3nc2-1)OCO4 (centres undefined) | 0.0787 µM and 0.241 µM | 1.2 µM and 0.347 µM |  | 1.42 µM |  | 0.114 µM and 0.219 µM | 3.15 µM and 1.07 µM | 13.3 µM and 11.8 µM | > 100 µM and 10.2 µM | 0.281 µM and 0.603 µM | 0.0161 µM and 0.038 µM | < 0.01 µM | 0.126 µM and 0.187 µM | 0.287 µM | 0.216 µM and 0.0574 µM | < 0.01 µM | 0.135 µM and 0.221 µM | 0.195 µM and 0.294 µM | 0.0116 µM and 0.0165 µM | < 0.01 µM and 0.0484 µM
COC(=O)[C@@H]1C=C[C@H](NC(C)=O)C1 | > 100 µM |  | > 100 µM | > 100 µM | > 100 µM | > 100 µM | > 100 µM | > 100 µM | > 100 µM | > 100 µM |  |  |  |  |  |  |  |  |  | 
Cn1c(=O)n(CC2CS2)c2ccccc21 (centres undefined) |  | > 100 µM | > 100 µM | > 100 µM | > 100 µM | > 100 µM | > 100 µM | > 100 µM | > 100 µM |  |  |  |  |  |  |  |  |  |  | 
CC1(C)[C@@H](OC(N)=O)C=C[C@]2(CO)[C@H]3CC[C@]4(C)[C@@H](c5ccc(=O)oc5)[C@@H](Cl)C[C@]4(O)C3=CC[C@@H]12 | 0.0557 µM | 0.00192 µM | 0.0268 µM | 0.00524 µM | 0.00372 µM | 0.0163 µM | 0.0294 µM | 0.0303 µM | 0.0145 µM | 0.029 µM | 0.0122 µM | < 0.0001 µM | 0.00456 µM | 0.00239 µM | < 0.0001 µM | 0.00426 µM | 0.00402 µM | 0.0116 µM | 0.00262 µM | 0.012 µM
CCN(CCCl)c1cccc(NC(=O)c2ccc(C(=O)Nc3cccc(CN(C)C)c3)cc2)c1 | 0.502 µM | 12.2 µM |  | 0.166 µM | 0.611 µM | 32 µM | 0.0856 µM | 0.68 µM | 11.9 µM | 0.304 µM |  |  |  |  |  |  |  |  |  | 
C=C(C)[C@@H]1CC[C@]2(CO)CC[C@]3(C)[C@H](CC[C@@H]4[C@@](C)(CCCN)[C@H](C(=C)C)CC[C@]43C)[C@@H]12 | 3.15 µM | 3.43 µM | 3.06 µM |  |  | 3.04 µM |  | 3.14 µM | 3.51 µM |  | 1.74 µM | 1.73 µM | 1.58 µM |  |  | 1.68 µM |  | 1.75 µM | 1.75 µM | 
CCN(CC)/[N+]([O-])=N/O | > 100 µM | > 100 µM | > 100 µM |  |  | > 100 µM | > 100 µM | > 100 µM | > 100 µM | > 100 µM |  |  |  |  |  |  |  |  |  | 
